From patent US9301951B2 (Ardelyx, Inc., priority 2010, dated 2016)
Marks after values point to notes of the source that are not given here.

Columns and labels:
[1] = test system: 5/6 nephrectomy (5/6Nx) rat model of CKD; test: In vivo evaluation in CKD rats (5/6 nephrectomy, 0.9% P diet, calcitriol); settings: drug in chow
Protocol: To assess the ability of selected example compounds to impact the progression of chronic kidney disease (CKD), 5/6 nephrectomy (5/6Nx) rat model of CKD was used. […] 5/6 Nx rats were obtained from Charles River Labs (CRL, Hollister, Calif.). Upon arrival, the surgeries and extent of kidney damage in the animals were assessed by measuring serum creatinine, P, Ca, and BUN. Based on this analysis, rats with inconsistent kidney function were removed from the study and the remainder of the cohort was divided in to evenly stratified test groups. The remaining animals were then placed on the same synthetic diet used in the drug-in-chow studies (Example 350), except the P levels were adjusted to 0.9% P. Drugs are blended into this chow to achieve the required dosing rate. At this time, rats were also started on an activated Vitamin D regimen in which they were injected intraperitoneally with calcitriol at 80 ng/kg three times a week. Once a week, serum was collected via retro orbital bleeding for analysis of serum P and creatinine utilizing an ACE ALERA blood chemistry analyzer. […] Unless otherwise indicated, the data shown is from the serum collected at 2 weeks after initiation of the treatment regimen. In addition, for study #3, during the third week of the study, the animals were placed in metabolic cages for two days, and urine collected for the final 24 hours.

human NaP2b (SLC34A2) = molecular target: T1, human NaP2b (SLC34A2) (Homo sapiens, UniProt O95436); test: Inhibition of NaP2b-mediated Pi (33P) uptake in transfected HEK293 cells, human NaP2b; format: cell-based; settings: HEK293 cells transfected with human NaP2b, 100 uM phosphate, 0.1 nM to 30 uM, read-out: pIC50 range for human NaP2b (converted)
T1 construct: host or cells: HEK293
T1 sequence (O95436 1-690): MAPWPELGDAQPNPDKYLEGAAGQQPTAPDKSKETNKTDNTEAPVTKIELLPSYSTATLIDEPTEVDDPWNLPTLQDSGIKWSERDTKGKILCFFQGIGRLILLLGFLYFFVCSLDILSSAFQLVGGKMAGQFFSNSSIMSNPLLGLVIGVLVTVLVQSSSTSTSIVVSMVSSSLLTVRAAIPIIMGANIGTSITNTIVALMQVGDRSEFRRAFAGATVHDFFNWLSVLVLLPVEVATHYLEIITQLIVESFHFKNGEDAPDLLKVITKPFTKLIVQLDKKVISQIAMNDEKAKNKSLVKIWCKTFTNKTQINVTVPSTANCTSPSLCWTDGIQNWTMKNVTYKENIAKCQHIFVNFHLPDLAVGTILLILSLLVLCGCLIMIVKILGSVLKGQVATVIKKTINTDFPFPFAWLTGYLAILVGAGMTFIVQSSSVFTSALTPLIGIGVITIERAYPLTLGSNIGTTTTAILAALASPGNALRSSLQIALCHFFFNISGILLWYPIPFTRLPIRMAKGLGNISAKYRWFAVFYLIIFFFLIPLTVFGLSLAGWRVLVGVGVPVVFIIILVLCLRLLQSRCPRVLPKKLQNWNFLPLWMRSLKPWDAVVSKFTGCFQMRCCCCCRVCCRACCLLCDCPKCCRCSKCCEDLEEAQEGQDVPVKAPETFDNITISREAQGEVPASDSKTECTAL
Protocol: (§1) HEK293 cells were obtained from the American Type Culture collection and propagated per their instructions. Expression clones for rat and human NaP2b (SLC34A2) were obtained from Open Biosystems (Catalog numbers MRN1768-9510282, and MHS1010-99823026, respectively). The sequence of the human protein was mutated to insert a threonine after residue 37, and to introduce a N39D mutation.
The rate of phosphate (Pi) uptake into HEK293 cells was measured using a modification of the method described by Mohrmann et al. (Mohrmann, I., Mohrmann, M., Biber, J., and Murer, H. (1986) Am. J. Phys. 250(3 Pt 1):G323-30.) Transfected HEK293 cells were treated with a pharmacological agent to minimize endogenous PiT-mediated phosphate transport activity, such that the only remaining sodium-dependent phosphate transport activity is that which was bestowed by introduction of the NaP2b genes.
(§2) Cells were seeded into 96-well plates at 25,000 cells/well and cultured overnight. Lipofectamine 2000 (Invitrogen) was used to introduce the NaP2b cDNA, and the cells were allowed to approach confluence during a second overnight incubation. […] Cells were then overlayed with either choline uptake buffer or sodium uptake buffer (14 mM Tris, 137 mM sodium chloride, 5.4 mM KCl, 2.8 mM CaCl2, 1.2 mM MgSO4, 100 uM KH2PO4, PiT-silencing agent, 1 mg/mL Bovine Serum Albumin, pH 7.4) containing 6-9 uCi/mL ^33P orthophosphoric acid (Perkin Elmer) and test compound. Each compound was tested at twelve concentrations ranging from 0.1 nM to 30 uM. Assays were run in duplicate.
After incubation for 3-30 minutes at room temperature, assay mixtures were removed, and the cells were washed twice with ice cold stop solution (137 mM sodium chloride, 14 mM Tris, pH 7.4). Cells were lysed by addition of 20 μL 0.1% Tween 80 followed by 100 μL scintillation fluid, and counted using a TopCount (Perkin Elmer).
(§3) pIC50 (the negative log of the […]) values of the test compounds were calculated using GraphPad Prism.

rat NaP2b (SLC34A2) = molecular target: T2, rat NaP2b (SLC34A2) (Rattus norvegicus, UniProt Q9JJ09); test: Inhibition of NaP2b-mediated Pi (33P) uptake in transfected HEK293 cells, rat NaP2b; format: cell-based; settings: HEK293 cells transfected with rat NaP2b, 100 uM phosphate, 0.1 nM to 30 uM, read-out: pIC50 range for rat Nap2b (converted)
T2 construct: host or cells: HEK293
T2 sequence (Q9JJ09 1-695): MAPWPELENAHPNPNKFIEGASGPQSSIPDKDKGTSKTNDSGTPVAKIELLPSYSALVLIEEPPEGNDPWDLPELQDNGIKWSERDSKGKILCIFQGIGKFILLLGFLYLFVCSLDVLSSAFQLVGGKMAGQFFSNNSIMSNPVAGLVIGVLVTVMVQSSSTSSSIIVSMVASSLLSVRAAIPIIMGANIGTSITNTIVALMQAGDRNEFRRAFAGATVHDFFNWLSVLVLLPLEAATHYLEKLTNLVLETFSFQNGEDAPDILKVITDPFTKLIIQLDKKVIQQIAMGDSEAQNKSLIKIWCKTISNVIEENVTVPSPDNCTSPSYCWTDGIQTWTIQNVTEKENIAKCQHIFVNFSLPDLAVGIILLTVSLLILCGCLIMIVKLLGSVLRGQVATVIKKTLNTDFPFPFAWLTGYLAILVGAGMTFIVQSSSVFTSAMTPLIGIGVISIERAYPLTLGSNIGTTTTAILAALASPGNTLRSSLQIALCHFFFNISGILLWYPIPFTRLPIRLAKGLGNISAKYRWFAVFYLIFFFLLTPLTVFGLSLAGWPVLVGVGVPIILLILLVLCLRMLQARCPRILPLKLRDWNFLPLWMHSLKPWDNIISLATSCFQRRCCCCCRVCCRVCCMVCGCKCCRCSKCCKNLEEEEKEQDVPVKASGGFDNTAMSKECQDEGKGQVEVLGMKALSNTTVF
Protocol: as §1, §2
Cells were lysed by addition of 20 μL 0.1% Tween 80 followed by 100 μL scintillation fluid, and counted using a TopCount (Perkin Elmer).
as §3

Row | SMILES | IC50 (human NaP2b (SLC34A2)) | IC50 (rat NaP2b (SLC34A2)) | further results
1 | CCN(CC)c1ccc(NC(=O)c2cccc(CSCCOCCOCCOCCOCCOCCOCCOCCOCCC(=O)O)c2)c(-c2cc(C(=O)NCc3cccc(C(F)(F)F)c3)ccn2)c1 [Example 166, 1-(3-(4-(diethylamino)-2-(4-(3-(trifluoromethyl)benzylcarbamoyl)pyridin-2-yl)phenylcarbamoyl)phenyl)-5,8,11,14,17,20,23,26-octaoxa-2-thianonacosan-29-oic acid] | – | – | Ser CRE ([1]; study 2, 2 weeks): 1.2 mg/dL; Ser P ([1]; study 2, 2 weeks): 11 mg/dL; FGF23 ([1]; study 2, 2 weeks, serum): 100000 pg/mL; Ser CRE, mg/dL ([1]; study 3, 3 weeks): 1.0^§ mg/dL; Ser P, mg/dL ([1]; study 3, 3 weeks): 10^§ mg/dL; Avg % weight gain ([1]; study 3, 4 weeks): 35^§§ %; FGF23, pg/mL ([1]; study 3, 4 weeks, serum): 1.2 × 10^5§§ pg/mL
2 | CCN(CC)c1ccc(NC(=O)c2cccc(CS(=O)(=O)CCOCCOCCOCCOCCC(=O)O)c2)c(-c2cc(C(=O)NCc3cccc(C(F)(F)F)c3)ccn2)c1 [Example 167, 1-(((3-((4-(diethylamino)-2-[4-(((3-(trifluoromethyl)phenyl]methyl)carbamoyl)pyridin-2-yl)phenyl)carbamoyl)phenyl)methane)sulfonyl)-3,6,9,12-tetraoxapentadecan-15-oic acid] | 10 to 31.6 µM | 10 to 31.6 µM | –
3 | CCN(CC)c1ccc(NC(=O)c2cccc(COCCOCCOCCOCCOC(=O)N(CCO)CCO)c2)c(-c2cc(C(=O)NCc3cccc(C(F)(F)F)c3)ccn2)c1 [Example 176, 1-(3-(4-(diethylamino)-2-(4-(3-(trifluoromethyl)benzylcarbamoyl)pyridin-2-yl)phenylcarbamoyl)phenyl)-2,5,8,11-tetraoxamidecan-13-yl bis(2-hydroxyethyl)carbamate] | 1 to 7.94 µM | 1 to 7.94 µM | –
4 | CCN(CC)c1ccc(NC(=O)c2cccc(COCCOCCOCCOCCOC(=O)NC(CO)(CO)CO)c2)c(-c2cc(C(=O)NCc3cccc(C(F)(F)F)c3)ccn2)c1 [Example 177, 1-(3-(4-(diethylamino)-2-(4-(3-(trifluoromethyl)benzylcarbamoyl)pyridin-2-yl)phenylcarbamoyl)phenyl)-2,5,8,11-tetraoxamidecan-13-yl 1,3-dihydroxy-2-(hydroxymethyl)propan-2-ylcarbamate] | 1 to 7.94 µM | 1 to 7.94 µM | –
5 | CCN(CC)c1ccc(NC(=O)c2cccc(Cn3ccc4c(C(=O)NCCOCCOCCOCCC(=O)O)cccc43)c2)c(-c2cc(C(=O)N[C@H]3CCCc4ccccc43)ccn2)c1 [Example 182, (S)-1-(1-(3-(4-(diethylamino)-2-(4-(1,2,3,4-tetrahydronaphthalen-1-ylcarbamoyl)pyridin-2-yl)phenylcarbamoyl)benzyl)-1H-indol-4-yl)-1-oxo-5,8,11-trioxa-2-azatetradecan-14-oic acid] | < 1 µM | < 1 µM | –
6 | CCN(CC)c1ccc(NC(=O)c2cccc(C(=O)N(C)CCN3CCN(C(=O)N(C)CCOCCOCCOCCC(=O)N(C)C[C@H](O)[C@@H](O)[C@H](O)[C@H](O)CO)CC3)c2)c(-c2cc(C(=O)N[C@H]3CCCc4ccccc43)ccn2)c1 [Example 232, 3-N-[4-(diethylamino)-2-(4-{[(1S)-1,2,3,4-tetrahydronaphthalen-1-yl]carbamoyl}pyridin-2-yl)phenyl]-1-N-methyl-1-N-(2-{4-[methyl(2-{2-[2-(2-{methyl[(2S,3R,4R,5R)-2,3,4,5,6-pentahydroxyhexyl]carbamoyl}ethoxy)ethoxy]ethoxy}ethyl)carbamoyl]piperazin-1-yl}ethyl)benzene-1,3-dicarboxamide] | 10 to 31.6 µM | 10 to 31.6 µM | –
7 | CCN(CC)c1ccc(NC(=O)c2cccc(CCCOCCOCCOCCOCCOCCOCCOCCOCCOC)c2)c(-c2cc(C(=O)N[C@H]3CCCc4ccccc43)ccn2)c1 [Example 261, (S)-2-(2-(3-(2,5,8,11,14,17,20,23,26-nonaoxanonacosan-29-yl)benzamido)-5-(diethylamino)phenyl)-N-(1,2,3,4-tetrahydronaphthalen-1-yl)isonicotinamide] | – | – | Ser CRE ([1]; study 1, 2 weeks): 1.0 mg/dL; Ser P ([1]; study 1, 2 weeks): 9.7 mg/dL; FGF23, pg/mL ([1]; study 1, 2 weeks, serum): >15,000 pg/mL
8 | CCN(CC)c1ccc(NC(=O)c2cccc(CCCOCCOCCOCCOCCNS(=O)(=O)c3ccc(C(=O)N(C)CCOCCOCCOCCOCCOCCOCCOC)cc3)c2)c(-c2cc(C(=O)NCc3cccc(C(F)(F)F)c3)ccn2)c1 [Example 287, 2-(2-(3-(1-(4-(2,5,8,11,14,17,20-heptaoxadocosan-22-yl(methyl)carbamoyl)phenylsulfonamido)-3,6,9,12-tetraoxapentadecan-15-yl)benzamido)-5-(diethylamino)phenyl)-N-(3-(trifluoromethyl)benzyl)isonicotinamide] | 1 to 7.94 µM | – | –
9 | CCN(CC)c1ccc(NC(=O)c2cccc(CCCOCCOCCOCCOCCNS(=O)(=O)c3ccc(C(=O)N4CCN(CCOCCOCCOCCOCCOCCOCCOC)C(=O)C4)cc3)c2)c(-c2cc(C(=O)NCc3cccc(C(F)(F)F)c3)ccn2)c1 [Example 288, 2-(2-(3-(1-(4-(4-(2,5,8,11,14,17,20-heptaoxadocosan-22-yl)-3-oxopiperazine-1-carbonyl)phenylsulfonamido)-3,6,9,12-tetraoxapentadecan-15-yl)benzamido)-5-(diethylamino)phenyl)-N-(3-(trifluoromethyl)benzyl)isonicotinamide] | 1 to 7.94 µM | – | –
10 | CCN(CC)c1ccc(NC(=O)c2cccc(CCCOCCOCCOCCOCCC(=O)N3CCN(C(=O)c4cccc(CCCOCCOCCOCCOCCC(=O)O)c4)CC3)c2)c(-c2cc(C(=O)NCc3cccc(C(F)(F)F)c3)ccn2)c1 [Example 293, 16-(3-(4-(16-(3-(4-(diethylamino)-2-(4-(3-(trifluoromethyl)benzylcarbamoyl)pyridin-2-yl)phenylcarbamoyl)phenyl)-4,7,10,13-tetraoxahexadecane)piperazine-1-carbonyl)phenyl)-4,7,10,13-tetraoxahexadecan-1-oic acid] | 1 to 7.94 µM | 1 to 7.94 µM | –
11 | CCN(CC)c1ccc(NC(=O)c2cccc(CCCOCCOCCOCCOCCNS(=O)(=O)c3ccc(CCC(=O)NCCOCCOCCOCCOCCOCCOCCOC)cc3)c2)c(-c2cc(C(=O)NCc3cccc(C(F)(F)F)c3)ccn2)c1 [Example 296, 2-(5-(diethylamino)-2-(3-(1-(4-(24-oxo-2,5,8,11,14,17,20-heptaoxa-23-azahexacosan-26-yl)phenylsulfonamido)-3,6,9,12-tetraoxapentadecan-15-yl)benzamido)phenyl)-N-(3-(trifluoromethyl)benzyl)isonicotinamide] | 1 to 7.94 µM | – | –
